Literature values as cited in patent US20230134563A1, “SUBLINGUAL CANNABINOID COMPOSITIONS” (ALVIT LCS PHARMA LTD., priority 2017, published 2023).

Conditions: single component (oil or surfactant)

SMILES: CCCCCc1cc(O)c2c(c1)OC(C)(C)[C@@H]1CCC(C)=C[C@@H]21 [THC, tetrahydrocannabinol]
- HLB: 0.754
